Source: US20170290774A1, “NEUROKININ-1 RECEPTOR ANTAGONIST COMPOSITION FOR TREATMENT OF DISEASES AND CONDITIONS OF THE RESPIRATORY TRACT” (PLUS VITECH, S.L., priority 2014, published 2017)

System: MMP-9
Test: Immunohistochemistry of MMP-9 in respiratory tract tissue of sodium hypochlorite aerosol-treated rabbits
Format: in vivo, New Zealand albino rabbits
Description: It is known that the factors TGF-α, TGF-β 1, TGF-β 2, TGF-β 3, SPARC, MMP-3; MMP-7, MMP-9, MMP-11, MMP-13 and MMP-14, TGF-β, NF-kB, EGF, MMP-9, VEGF and TNF-α which are produced by lung cells (pneumocytes, fibroblasts and vascular endothelial cells) and inflammatory cells (macrophages, lymphocytes and polymorphonuclear leukocytes) are involved in the pathophysiology and development of said respiratory tract diseases. […] Herein, 27 New Zealand albino rabbits (New Zealand White Rabbit) with an initial average weight about 3 kg were used in this example. All subjects were administered an aerosol of a solution consisting of a mixture of water and sodium hypochlorite (35 g sodium hypochlorite per liter of water) at a rate of 5 mL of said solution by inhalation three times a day for 7 days (days 1 to 7 of experimentation). Subsequently, from days 3 to 7, a group of 3 rabbits (Group 1) was administered an oral dose of 10 mg/kg body weight per day, another group of 3 rabbits (Group 2) was administered an oral dose of 40 mg/kg body weight per day, a third group (Group 3) was administered an oral dose of 80 mg/kg body weight per day and a fourth group (Group 4) was administered an oral dose of 100 mg/kg body weight per day. […] This mixture was administered as an aerosol by inhalation, also from days 3 to 7, to a group of 3 rabbits (group 5) at a dose of 0.05 mg/kg body weight per day, to another group of three rabbits (Group 6) at a dose of 0.1 mg/kg body weight per day, to another group of three rabbits (Group 7) at a dose of 0.2 mg/kg body weight per day and to another group of three rabbits (Group 8) at a dose of 0.4 mg/kg body weight per day. A placebo consisting only of olive oil was administered from days 3 to 7 to a control group of 3 rabbits (placebo group). In parallel, 3 rabbits were kept under identical conditions but were not administered any treatment nor the aforementioned sodium hypochlorite solution (control group). […] On day 7 of the experiment all animals were euthanized and necropsied. […] Samples were taken at the peripheral level of the lung parenchyma, just below the pleural surface. Tissue samples were also taken from the nasal cavity, pharynx, larynx and bronchi. Immunohistochemistry studies were performed for all samples to evaluate the levels of the markers TGF-α, TGF-β 1, TGF-β 2, TGF-β 3 SPARC, MMP-3; MMP-7, MMP-9, MMP-11, MMP-14, TGF-β, TNF-α and VEGF. In said immunohistochemistry studies, a sample of each sample was dehydrated by treatment with increasing concentrations of ethanol and finally xylene. Subsequently said dried samples were embedded in paraffin, thus creating a block. Said paraffin blocks were cut on a microtome to a thickness of 5 μm, and the resulting sections (slices) were placed on slides suitable for conducting immunohistochemistry techniques. Subsequently, the sections were deparaffinised by immersion in xylene and then rehydrated through immersion in a series of solutions containing decreasing concentrations of ethanol and, finally, water. […] The samples were then allowed to cool to room temperature over 10 minutes. Endogenous peroxidase activity was blocked by treatment with 3% hydrogen peroxide over 30 min at room temperature. […] In order to verify the expression of NK1 receptors, the cell samples were incubated in the presence of anti-NK1 antibodies ([…], Sigma-Aldrich) diluted 1:1000 at 4° C. overnight. After this time they were washed in 0.05M Tris buffer at room temperature. Subsequently, Envision System-HRP (Dako) reagents were added for 30 min at room temperature. Once this time had expired, the samples were again washed with 0.05 M Tris buffer, and immunoreactivity was visualized by light microscopy with a chromogenic solution with 3,3'-diaminobenzidine (DAB+; Dako, USA). In order to differentiate the cell nuclei, these were lightly stained with haematoxylin. Samples that were not incubated with the primary antibody, but wherein this was replaced by a non-immune serum were used as negative controls. […]

C[C@@H](OC1OCCN(Cc2nc(=O)[nH][nH]2)C1c1ccc(F)cc1)c1cc(C(F)(F)F)cc(C(F)(F)F)c1 (stereo in doubt) [Aprepitant, 5-([(2R,3S)-2-((R)-1-[3,5-bis(trifluoromethyl)phenyl]ethoxy)-3-(4-fluorophenyl)morpholino]methyl)-1H-1,2,4-triazol-3(2H)-one]
Percent increase in MMP-9 with respect to the control group (bronchial tissue, Group 1, oral 10 mg/kg per day): 749.34% | Percent increase in MMP-9 with respect to the control group (bronchial tissue, Group 2, oral 40 mg/kg per day): 672.94% | Percent increase in MMP-9 with respect to the control group (bronchial tissue, Group 3, oral 80 mg/kg per day): 495.87% | Percent increase in MMP-9 with respect to the control group (bronchial tissue, Group 4, oral 100 mg/kg per day): 305.34% | % Med G5/C: percent increase in marker MMP-9 with respect to the control group (bronchial tissue, Group 5): 673.45% | % Med G6/C: percent increase in marker MMP-9 with respect to the control group (bronchial tissue, Group 6): 452.61% | % Med G7/C: percent increase in marker MMP-9 with respect to the control group (bronchial tissue, Group 7): 325.54% | % Med G8/C: percent increase in marker MMP-9 with respect to the control group (bronchial tissue, Group 8): 153.34% | Percent increase in MMP-9 with respect to the control group (laryngeal tissue, Group 1, oral 10 mg/kg per day): 1,290.89% | Percent increase in MMP-9 with respect to the control group (laryngeal tissue, Group 2, oral 40 mg/kg per day): 983.98% | Percent increase in MMP-9 with respect to the control group (laryngeal tissue, Group 3, oral 80 mg/kg per day): 898.18% | Percent increase in MMP-9 with respect to the control group (laryngeal tissue, Group 4, oral 100 mg/kg per day): 788.78% | Percent increase in MMP-9 with respect to the control group (laryngeal tissue, Group 5, inhalation 0.05 mg/kg per day): 989.34% | Percent increase in MMP-9 with respect to the control group (laryngeal tissue, Group 6, inhalation 0.1 mg/kg per day): 567.37% | Percent increase in MMP-9 with respect to the control group (laryngeal tissue, Group 7, inhalation 0.2 mg/kg per day): 256.47% | Percent increase in MMP-9 with respect to the control group (laryngeal tissue, Group 8, inhalation 0.4 mg/kg per day): 123.23% | Percent increase in MMP-9 with respect to the control group (lung tissue, Group 1, oral 10 mg/kg per day): 566.19% | Percent increase in MMP-9 with respect to the control group (lung tissue, Group 2, oral 40 mg/kg per day): 384.44% | Percent increase in MMP-9 with respect to the control group (lung tissue, Group 3, oral 80 mg/kg per day): 338.57% | Percent increase in MMP-9 with respect to the control group (lung tissue, Group 4, oral 100 mg/kg per day): 326.02% | Percent increase in MMP-9 with respect to the control group (lung tissue, Group 5, inhalation 0.05 mg/kg per day): 570.94% | Percent increase in MMP-9 with respect to the control group (lung tissue, Group 6, inhalation 0.1 mg/kg per day): 267.29% | Percent increase in MMP-9 with respect to the control group (lung tissue, Group 7, inhalation 0.2 mg/kg per day): 183.98% | Percent increase in MMP-9 with respect to the control group (lung tissue, Group 8, inhalation 0.4 mg/kg per day): 156.83% | Percent increase in MMP-9 with respect to the control group (nasal cavity tissue, Group 1, oral 10 mg/kg per day): 1,355.64% | Percent increase in MMP-9 with respect to the control group (nasal cavity tissue, Group 2, oral 40 mg/kg per day): 768.75% | Percent increase in MMP-9 with respect to the control group (nasal cavity tissue, Group 3, oral 80 mg/kg per day): 511.58% | Percent increase in MMP-9 with respect to the control group (nasal cavity tissue, Group 4, oral 100 mg/kg per day): 328.92% | Percent increase in MMP-9 with respect to the control group (nasal cavity tissue, Group 5, inhalation 0.05 mg/kg per day): 1,289.77% | Percent increase in MMP-9 with respect to the control group (nasal cavity tissue, Group 6, inhalation 0.1 mg/kg per day): 588.48% | Percent increase in MMP-9 with respect to the control group (nasal cavity tissue, Group 7, inhalation 0.2 mg/kg per day): 291.36% | Percent increase in MMP-9 with respect to the control group (nasal cavity tissue, Group 8, inhalation 0.4 mg/kg per day): 143.08% | Percent increase in MMP-9 with respect to the control group (pharyngeal tissue, Group 1, oral 10 mg/kg per day): 1,102.28% | Percent increase in MMP-9 with respect to the control group (pharyngeal tissue, Group 2, oral 40 mg/kg per day): 945.34% | Percent increase in MMP-9 with respect to the control group (pharyngeal tissue, Group 3, oral 80 mg/kg per day): 789.45% | Percent increase in MMP-9 with respect to the control group (pharyngeal tissue, Group 4, oral 100 mg/kg per day): 561.21% | Percent increase in MMP-9 with respect to the control group (pharyngeal tissue, Group 5, inhalation 0.05 mg/kg per day): 998.67% | Percent increase in MMP-9 with respect to the control group (pharyngeal tissue, Group 6, inhalation 0.1 mg/kg per day): 505.32% | Percent increase in MMP-9 with respect to the control group (pharyngeal tissue, Group 7, inhalation 0.2 mg/kg per day): 212.24% | Percent increase in MMP-9 with respect to the control group (pharyngeal tissue, Group 8, inhalation 0.4 mg/kg per day): 121.23%
